Article PMC12589487, “Molecular basis of vitamin K-dependent protein γ-glutamyl carboxylation” (Cell Research, 2025)

Assays:
GGCX^AA•FX complex = molecular target: T1, GGCX^AA•FX complex (Homo sapiens, UniProt P38435, K217A/K218A); assay: cryo-EM structure, […] Å; format: binding; conditions: catalytically inactive GGCX double mutant
T1 construct: GGCX K217A/K218A double mutant in complex with FX, cryo-EM; with Coagulation factor X

GGCX•FIX complex [1] = molecular target: T2, GGCX•FIX complex (Homo sapiens, UniProt P38435, K217A/K218A); assay: cryo-EM structure, […] Å; format: binding; conditions: catalytically inactive GGCX double mutant
T2 construct: GGCX co-expressed with full-length FIX in HEK293F cells, cryo-EM in detergent micelle; FIX propeptide and GLA domain (residues 29-92) resolved; WT and K217A/K218A GGCX; with Coagulation factor IX

GGCX•FIX complex [2] = molecular target: T3, GGCX•FIX complex (Homo sapiens, UniProt P38435); assay: cryo-EM structure, […] Å; format: binding
T3 construct: GGCX co-expressed with full-length FIX in HEK293F cells, cryo-EM in detergent micelle; FIX propeptide and GLA domain (residues 29-92) resolved; WT and K217A/K218A GGCX; with Coagulation factor IX

GGCX [3] = molecular target: T4, GGCX (Homo sapiens, UniProt P38435); assay: binding assay, method not told in main text (Fig. S9); conditions: homologue not told in main text
T4 construct: Flag-tagged GGCX used in pull-downs
T4 sequence (P38435 2-758): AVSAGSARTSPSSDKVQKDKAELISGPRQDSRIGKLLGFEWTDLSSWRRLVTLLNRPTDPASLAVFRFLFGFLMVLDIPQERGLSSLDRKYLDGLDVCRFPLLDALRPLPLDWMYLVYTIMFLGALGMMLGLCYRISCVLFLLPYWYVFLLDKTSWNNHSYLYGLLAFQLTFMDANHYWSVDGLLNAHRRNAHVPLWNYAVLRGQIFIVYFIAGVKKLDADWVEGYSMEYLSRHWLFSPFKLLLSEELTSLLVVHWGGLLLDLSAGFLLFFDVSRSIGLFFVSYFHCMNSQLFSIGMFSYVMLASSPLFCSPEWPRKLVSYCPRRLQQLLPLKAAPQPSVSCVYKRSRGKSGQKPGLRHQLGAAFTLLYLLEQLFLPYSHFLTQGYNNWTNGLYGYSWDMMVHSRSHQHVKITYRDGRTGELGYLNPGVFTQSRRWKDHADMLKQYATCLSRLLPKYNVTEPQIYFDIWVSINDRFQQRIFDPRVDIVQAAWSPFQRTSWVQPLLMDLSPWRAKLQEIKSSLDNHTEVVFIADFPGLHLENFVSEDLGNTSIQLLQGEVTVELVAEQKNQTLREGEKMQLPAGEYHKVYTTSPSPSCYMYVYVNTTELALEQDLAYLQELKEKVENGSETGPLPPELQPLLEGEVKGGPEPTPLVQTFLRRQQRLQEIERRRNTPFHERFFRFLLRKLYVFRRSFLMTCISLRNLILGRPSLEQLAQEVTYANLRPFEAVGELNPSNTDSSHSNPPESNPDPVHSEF

GGCX [4] = molecular target: T4, GGCX; assay: binding assay, method not told in main text (Fig. S8); conditions: form and homologue of vitamin K not told in main text

T3 sequence (P38435 whole entry, the tested form may be a part): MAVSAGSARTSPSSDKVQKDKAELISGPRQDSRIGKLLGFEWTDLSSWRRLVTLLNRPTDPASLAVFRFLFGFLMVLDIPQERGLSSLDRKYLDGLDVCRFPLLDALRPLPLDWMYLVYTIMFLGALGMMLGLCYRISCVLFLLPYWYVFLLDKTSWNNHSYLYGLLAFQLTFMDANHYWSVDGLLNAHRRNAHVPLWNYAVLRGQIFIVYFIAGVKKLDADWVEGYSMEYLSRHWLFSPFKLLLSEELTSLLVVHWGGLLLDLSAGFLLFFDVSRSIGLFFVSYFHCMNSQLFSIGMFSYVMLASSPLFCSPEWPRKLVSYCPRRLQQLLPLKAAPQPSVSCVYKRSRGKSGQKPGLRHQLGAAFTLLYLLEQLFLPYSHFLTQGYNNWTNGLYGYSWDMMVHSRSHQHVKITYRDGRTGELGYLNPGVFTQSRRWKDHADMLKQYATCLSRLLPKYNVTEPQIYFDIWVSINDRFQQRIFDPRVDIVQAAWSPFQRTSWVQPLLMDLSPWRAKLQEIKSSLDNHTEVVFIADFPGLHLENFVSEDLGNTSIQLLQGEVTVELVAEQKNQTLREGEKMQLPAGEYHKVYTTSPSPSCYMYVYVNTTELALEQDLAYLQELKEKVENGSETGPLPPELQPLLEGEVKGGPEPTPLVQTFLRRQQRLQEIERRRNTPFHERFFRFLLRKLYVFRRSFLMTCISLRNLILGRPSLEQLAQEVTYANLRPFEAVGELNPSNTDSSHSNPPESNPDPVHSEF
T3 sequence (P00740 29-461 partner): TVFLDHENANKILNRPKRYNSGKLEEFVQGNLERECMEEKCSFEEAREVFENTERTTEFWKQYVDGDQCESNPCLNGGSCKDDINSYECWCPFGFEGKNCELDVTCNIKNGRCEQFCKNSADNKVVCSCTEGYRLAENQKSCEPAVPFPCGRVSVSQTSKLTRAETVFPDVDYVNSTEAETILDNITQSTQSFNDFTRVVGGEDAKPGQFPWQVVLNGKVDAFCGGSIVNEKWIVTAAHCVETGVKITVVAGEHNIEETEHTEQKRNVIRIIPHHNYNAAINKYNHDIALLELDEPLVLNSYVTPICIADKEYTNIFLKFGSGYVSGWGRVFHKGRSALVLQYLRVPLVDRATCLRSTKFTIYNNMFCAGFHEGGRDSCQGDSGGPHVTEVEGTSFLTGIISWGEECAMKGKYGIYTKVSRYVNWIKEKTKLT
T1 sequence (P38435 whole entry K217A/K218A): as the sequence (P38435 whole entry, the tested form may be a part) above, with K217A, K218A counted along it
T1 sequence (P00742 32-488 partner limits assumed): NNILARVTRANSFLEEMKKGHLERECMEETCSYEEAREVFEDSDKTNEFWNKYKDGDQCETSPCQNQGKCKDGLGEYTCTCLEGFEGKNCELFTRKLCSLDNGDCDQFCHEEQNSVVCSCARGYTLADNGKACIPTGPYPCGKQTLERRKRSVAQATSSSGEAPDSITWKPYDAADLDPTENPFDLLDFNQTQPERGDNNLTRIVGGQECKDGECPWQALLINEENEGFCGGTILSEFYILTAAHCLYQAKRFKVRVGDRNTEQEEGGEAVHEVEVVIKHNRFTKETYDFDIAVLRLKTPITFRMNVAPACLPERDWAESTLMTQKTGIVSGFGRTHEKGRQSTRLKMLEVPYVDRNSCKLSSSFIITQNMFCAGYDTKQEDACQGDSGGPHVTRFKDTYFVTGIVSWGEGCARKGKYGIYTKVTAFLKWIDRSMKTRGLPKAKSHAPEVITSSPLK
T2 sequence (P38435 whole entry K217A/K218A, the tested form may be a part): as the sequence (P38435 whole entry, the tested form may be a part) above, with K217A, K218A counted along it
T2 sequence (P00740 29-461 partner): as the sequence (P00740 29-461 partner) above

CC(C)=CCC/C(C)=C/CC/C(C)=C/CC/C(C)=C/Cc1c(C)c(O)c2ccccc2c1O [MKH2-4]
cryo-EM structure, 2.58 Å (GGCX^AA•FX complex): unambiguous assignment of the bound molecule as MK-4 hydroquinone (MKH2-4) | cryo-EM structure, 2.59 Å (GGCX•FIX complex [1]): unambiguous assignment of the bound molecule as MK-4 hydroquinone (MKH2-4) | cryo-EM structure, 2.78 Å (GGCX•FIX complex [2]; co-purified endogenous vitamin K, MK-4 by LC-MS/MS, ligand modelled by superposition with the K217A/K218A complex): Superimposing GGCX^WT•FIX onto GGCX^AA•FIX facilitated modeling of MKH2-4 into the WT binding pocket

CC(C)CCC[C@@H](C)[C@H]1CC[C@H]2[C@@H]3CC=C4C[C@@H](O)CC[C@]4(C)[C@H]3CC[C@]12C [cholesterol]
cryo-EM structure, 2.78 Å (GGCX•FIX complex [2]; co-purified lipid, which deposited model holds it is not told explicitly): A well-resolved co-purified cholesterol was also observed

VKO
Kd (GGCX [3]): ~8.19 µM

vitamin K
Kd (GGCX [4]): ~0.85 µM
